The target of this test is BmAsnRS (Brugia malayi asparaginyl-tRNA synthetase) (Brugia malayi, UniProt P10723). In words: nonradioactive pretransfer editing assay, malachite green phosphate detection. The format is biochemical.

Numbered stars: 1 amine (or outer) side, 2 acyl side, 3 side chain; on linkers, the order of the positions; unused ones are H or OH. Square brackets hold non-standard residues; d marks the D form. Peptide text beside a SMILES is read from it. * marks the point of attachment. Cinnamoyl(2-(1Z-pentenyl)) = CCC/C=C\c1ccccc1/C=C/C(=O)*; X1 = CN(/C(=C/c1ccc(O)cc1)C(=O)[*:2])[*:1]; aThr = C[C@H](O)[C@H](N)C(=O)O

Chain of BmAsnRS (Brugia malayi asparaginyl-tRNA synthetase) (P10723 whole entry): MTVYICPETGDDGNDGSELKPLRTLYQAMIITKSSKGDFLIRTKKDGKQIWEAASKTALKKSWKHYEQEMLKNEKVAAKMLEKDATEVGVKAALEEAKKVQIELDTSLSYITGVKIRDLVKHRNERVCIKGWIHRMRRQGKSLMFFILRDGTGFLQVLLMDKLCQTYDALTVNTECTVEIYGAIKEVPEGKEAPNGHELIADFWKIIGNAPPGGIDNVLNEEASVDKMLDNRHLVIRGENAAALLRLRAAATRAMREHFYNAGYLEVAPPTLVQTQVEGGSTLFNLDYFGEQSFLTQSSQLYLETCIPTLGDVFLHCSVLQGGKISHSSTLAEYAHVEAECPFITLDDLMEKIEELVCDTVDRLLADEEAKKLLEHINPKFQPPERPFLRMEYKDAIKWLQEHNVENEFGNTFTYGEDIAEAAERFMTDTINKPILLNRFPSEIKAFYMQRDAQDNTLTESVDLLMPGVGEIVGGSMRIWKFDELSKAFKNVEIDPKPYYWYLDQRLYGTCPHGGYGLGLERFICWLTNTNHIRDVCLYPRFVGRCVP

A word on the IC50: it is the concentration that inhibits the measured activity by half. `CCC/C=C\c1ccccc1/C=C/C(=O)N[C@H](C(=O)N(C)/C(=C/c1ccc(O)cc1)C(=O)N[C@@H](CC(C)C)C(=O)N[C@H](Cc1ccccc1)C(=O)N[C@H](C(=O)O)[C@H](C)O)[C@@H](C)O` [compound 3, WS9326D] ({Cinnamoyl(2-(1Z-pentenyl))}-T[X1]L[dF][aThr]-OH): the IC50 is about 50 µM.
For `CCC/C=C\c1ccccc1/C=C/C(=O)N[C@@H](CO)C(=O)N(C)/C(=C/c1ccc(O)cc1)C(=O)N[C@@H](CC(C)C)C(=O)N[C@H](Cc1ccccc1)C(=O)N[C@H](C(=O)O)[C@H](C)O` [compound 4, WS9326E] ({Cinnamoyl(2-(1Z-pentenyl))}-S[X1]L[dF][aThr]-OH) the value was about 75 µM.

Source of the values: paper PMC3460372 (Organic letters, 2012).
